Here are results for one compound from article PMC9822133, “Design, Synthesis and Antiproliferative Evaluation of Bis-Indole Derivatives with a Phenyl Linker: Focus on Autophagy” (Molecules, 2022).

The subject of assay [1] is A549 cells. The assay can be described thus: MTT assay with chloroquine combination. To be noted: 49 20 μM + CQ 5, 10 and 20 μM, 72 h. Format: cell-based, human. As for the experimental part: The MTT assay is a colorimetric method used to quantify the metabolic activity of cells. MTT (3-(4,5-di-methylthiazol-2-yl)2,5-diphenyltetrazolium bromide) (Sigma-Aldrich Chemie, Steinheim, Germany) is reduced by oxidoreductases in the cytosol of cells to light-absorbing formazan, the presence of which can be measured spectrophotometrically and determines the half-maximal inhibitory concentration (IC50). A549 cells were seeded in […] culture plates at a density of 5 × 10^3 per well. […]
We also incubated the cells with chloroquine at concentrations of 5–20 µM, which was added 1 h before the addition of the test substance, and cisplatin at concentrations of 3–10 µM. Cisplatin was added 24 h after the addition of 49. After 72 h of incubation, 10 µL of MTT (5 mg/mL) was added to each well. After 4 h, formazan crystals formed in the wells, which were dissolved in 100 uL of 10% SDS (sodium dodecyl sulfate). After 24 h, the absorbance was measured at a wavelength of 540 nm using an automated Cytation™ 3 Cell Imaging Multi-Mode Reader (Biotek, Winooski, VT, USA). These experiments were performed in three independent replicates.
(In general: Tetrazolium assays rely on reduction of a dye to a coloured formazan, in cell work by metabolically active cells.)

Assay [2] has as its system A549 human lung cancer cells. The experiment in a line: MTT assay with cis-platin alone or combined with compound 49. Format: cell-based. The note with it: A549, CisPt 10 μM + compound 49 20 μM. The source says:
Furthermore, the depletion of GSH has been documented to potentiate the effect of anticancer drugs. Glutathione plays an important role in cisPt detoxification, so depletion of GSH is believed to potentiate the cisPt-induced DNA damage and increase the chemosensitivity of cancer cells to this anticancer drug. Due to the GSH-depleting effect of compound 49, we performed a set of experiments with cis-platin (CisPt) alone or in combination with compound 49 (Figure 9). […] Simultaneous treatments with CisPt (10 μM) and 20 μM of compound 49 caused a 59% reduction in cell growth.
The MTT assay is a colorimetric method used to quantify the metabolic activity of cells. MTT (3-(4,5-di-methylthiazol-2-yl)2,5-diphenyltetrazolium bromide) (Sigma-Aldrich Chemie, Steinheim, Germany) is reduced by oxidoreductases in the cytosol of cells to light-absorbing formazan, the presence of which can be measured spectrophotometrically and determines the half-maximal inhibitory concentration (IC50). […]
We also incubated the cells with chloroquine at concentrations of 5–20 µM, which was added 1 h before the addition of the test substance, and cisplatin at concentrations of 3–10 µM. […] After 24 h, the absorbance was measured at a wavelength of 540 nm using an automated Cytation™ 3 Cell Imaging Multi-Mode Reader (Biotek, Winooski, VT, USA). […]

Assay [3] has as its system Phospho-ULK Ser555. The assay can be described thus: Western blot, phospho-ULK1 Ser555. Format: cell-based, human. The note with it: A549, all time periods, mostly after 24 and 48 h. The source says:
ULK1/AMPK. ULK1 is a serine/threonine protein kinase. The ULK1 complex controls the formation of the phagophore, the initial autophagosomal precursor membrane structure. Upon induction of autophagy, the ULK1 complex translocates to autophagy initiation sites and regulates the recruitment of a second kinase complex, VPS34. ULK1 can be inhibited by phosphorylation by mammalian target of rapamycin complex 1 (mTORC1) or activated after AMP-activated protein kinase (AMPK) phosphorylation. Under conditions of nutrient deficiency, AMPK is activated, which directly activates ULK1. The kinase is phosphorylated, i.e., activated by an increased AMP/ATP ratio due to cellular and environmental stress. AMPK also inactivates mTORC1 and thus blocks its inhibitory action on autophagy activation.
A549 cells were seeded on Petri dishes (55 cm^2) at a density of 1 × 10^6 and allowed to culture in the medium. After 24 h, the test substance was added, and the cells were incubated for 24, 48 and 72 h. […] After lysis, the cells were sonicated, and the protein concentration in the samples was quantified using the Pierce® BCA Protein Assay Kit (Thermo Scientific, Rockford, IL, USA) and measured by an automated Cytation™ 3 Cell Imaging Multi-Mode Reader (Biotek) at a wavelength of 570 nm. […]
In general terms: A western blot detects proteins with antibodies after separation by electrophoresis.

Assay [4] relates to glutathione-S-transferase (GST). The experiment in a line: GST activity in treated A549 cells. Format: cell-based, human. To be noted: A549, 20 µM. The source says:
(§1) Glutathione is an important intracellular molecule involved in carcinogen detoxification. On the other hand, its elevated state in cancer cells is often associated with resistance to chemotherapy. […] Because high levels of GSH are associated with cancer cell resistance, the GHS-depleting effect of compound 49 could be interesting due to new cancer chemosensitizer development. In the case of GST and GR, we hypothesize that an increase in the activity of both enzymes may be a compensatory mechanism induced by GSH depletion.
(§2) Both floating and adherent A549 cells were harvested at 24, 48, and 72 h after treatment with compound 49 (20 µM). SOD determination kit, Glutathione Peroxidase Cellular Activity Assay kit, Glutathione Reductase Assay Kit and Glutathione-S-transferase (GST) Assay Kit (all Sigma Aldrich, Germany) were used for the detection of relevant enzyme activity. Reduced glutathione (GSH) content was measured by the method originally described by Floreani et al.. Assays were performed on an M 501 single beam UV/VIS spectrophotometer (Spectronic Camspec Ltd., Leeds, United Kingdom). All measured parameters were calculated per milligram or gram of protein determined using the bicinchoninic acid assay.

The test system of assay [5] is glutathione peroxidase (GPx). The assay can be described thus: GPx activity in treated A549 cells. Format: cell-based, human. To be noted: A549, 20 µM.
From the text: as §1, §2

Take `CC(C)(C)OC(=O)n1cc(CNC(=O)Nc2ccc(NC(=O)NCc3cn(C(=O)OC(C)(C)C)c4ccccc34)cc2)c2ccccc21` [Compound 49, N,N′-(1,4-phenylene)bis{N′-[1-(tert-butoxycarbonyl)indol-3-yl]methyl (urea)}]: in assay [1], the “effect of chloroquine co-treatment on the antiproliferative effect of compound 49 (A549 cell survival)” value was “significantly potentiated”. Further, the “reduction in cell growth, combination” value in assay [2] is listed as 59%. In addition, the “phosphorylated form of ULK1 at Ser555” value in assay [3] is “significant upregulation”. In addition, the GST amounted to 3.540 ± 1.07 μkat/mg Prot in assay [4] (24 h), 2.580 ± 0.44 μkat/mg Prot in assay [4] (48 h) and 5.060 ± 0.52 μkat/mg Prot in assay [4] (72 h). The GPx in assay [5] (24 h) came out at 0.148 ± 0.021 μkat/mg Prot; in assay [5] (48 h) it was 0.139 ± 0.028 μkat/mg Prot; in assay [5] (72 h), 0.077 ± 0.038 μkat/mg Prot.
